Assay [1] deals with AgMaT1 expression. The note with it: saline stress for 4 weeks, daily watering with 300 mM of NaCl; RT-PCR.
Protocol: The total RNA of celery phloem was isolated according to the method of Kay et al. (1987). The first strand of cDNA was reverse transcribed from the total RNA with the oligo dT primer by using the reverse transcriptase SuperScript™ II (Stratagene). […] The PCR conditions were as follows: 2 minutes at 95° C. then 30 cycles comprising denaturation for 30 seconds at 95° C., fixation for one minute at 47° C. and extension for 45 seconds at 72° C. The PCR products were analyzed by agarose gel electrophoresis and the intensity of the signal obtained was quantified using Photoshop 5.0 software (Adobe systems Inc.). The extension factor elF4A(10) (Mandel et al., 1995) was used as control gene, the expression of which is invariable.
The expression of AgMaT1 was monitored in plants having been subjected to saline stress for 4 weeks (daily watering with 300 mM of NaCl, Noiraud et al., 2000). The phloem of these plants as well as of the corresponding control plants (watered with water not containing NaCl) was removed in order to extract the RNA which was used to carry out RT-PCR reactions.
The subject of assay [2] is AgMaT1. Briefly: Transport of radiolabelled mannitol in yeast cells expressing AgMaT1, with competitors. It is filed as cell-based, Apium graveolens L. The following applies: MaDH4 S. cerevisiae expressing AgMaT1; 500 μM [3H]-mannitol, pH 4.5; competitor added 30 seconds before. How it is done:
The cells were cultured until the start of the logarithmic phase (corresponding to an absorbance of […]), washed in distilled water and resuspended at 1% (weight/volume) in SC medium buffered to pH 4.5 with 25 mM MES. A 100 μl aliquot fraction of the cell suspension was incubated for 60, 120, 180 and 300 seconds in 100 μl of a solution containing of 500 μM [^3H]-mannitol. The reaction was stopped by adding 8 ml of water at 4° C. and by filtration through glass fibre filters (Sartorius). The radioactivity incorporated in the yeast cells was determined by counting using liquid scintillation (Packard). For the experiments with inhibitors or competitors, the product was added 30 seconds before the radioactive mannitol.
For a subsequent characterization of the function of the AgMaT1 protein, it was necessary to express the carrier in a functional manner in a heterologous system such as yeast cells. The cDNA of AgMaT1 was sub-cloned in the PstI/XhoI sites of the YEP 112A1XE shuttle vector which has a promoter/terminator box of the gene of alcohol dehydrogenase ADH1 of S. cerevisiae (Riesmeier et al., 1992). The competent MaDH4 cells were transformed with this construction and YEP 112A1XE was used as control.
All of the constructions were firstly tested for their ability to grow on mannitol as the only carbon source. […] The cells expressing AgMaT1 could grow very well on this polyol. In order to directly test the ability of the transformed cells to transport mannitol, the yeast cells were incubated in a medium containing [^3H]-mannitol for a few seconds to several minutes, the cells were washed and the radioactivity absorbed was measured by […] scintillation counting. […] However, the MaDH4 yeast strains, expressing AgMaT1, transport the [^3H]-mannitol at high speeds when they grow on a medium containing mannitol. The same result is obtained with the cells of transformed yeast growing on glycerol (data not indicated).

Structures are written as SMILES.

`[Cl-].[Na+]` [NaCl]: in assay [1], the “expression of AgMaT1 in the phloem (control plants taken as base 100)” value is on record as 500%.
As to `OC[C@@H](O)[C@H](O)[C@H](O)[C@@H](O)CO` [dulcitol], the “inhibition of the absorption of mannitol” value in assay [2] is “inhibiting by half”.
On to `O[C@H]1[C@H](O)[C@@H](O)[C@H](O)[C@@H](O)[C@H]1O` [myo-inositol], for which, in assay [2], the “inhibition of the absorption of mannitol” value is listed as “inhibiting by half”.
Still for that read-out and setting: for `OC[C@@H](O)[C@@H](O)[C@H](O)[C@@H](O)CO` [sorbitol] the value was “inhibiting by half”; for `OC[C@@H](O)[C@H](O)[C@@H](O)CO` [xylitol], “inhibiting by half”.
